In ChEMBL document CHEMBL1201862, “PubChem BioAssay data set” (2004):
The source made the active and inactive calls.

Tests used:
Cytochrome P450 2C19 = Cytochrome P450 2C19 (Homo sapiens, UniProt P33261); experiment: Cytochrome panel assay with activity outcomes. Panel member name: p450-cyp2c19 Compounds with AC50 equal or less than 10 uM are considered active; assay type: functional
[1] = growth induction of Burl-1 ts yeast mutant, dose response, counter-screen for SUMOylation pathway inhibitor project, whole organism, S. cerevisiae, luminescence (AID 463199); assay type: functional
Cytochrome P450 1A2 = biological target: T1, Cytochrome P450 1A2 (Homo sapiens, UniProt P05177);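 further: PubChem cytochrome P450 panel assay, CYP1A2 panel member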
T1 sequence (P05177 whole entry): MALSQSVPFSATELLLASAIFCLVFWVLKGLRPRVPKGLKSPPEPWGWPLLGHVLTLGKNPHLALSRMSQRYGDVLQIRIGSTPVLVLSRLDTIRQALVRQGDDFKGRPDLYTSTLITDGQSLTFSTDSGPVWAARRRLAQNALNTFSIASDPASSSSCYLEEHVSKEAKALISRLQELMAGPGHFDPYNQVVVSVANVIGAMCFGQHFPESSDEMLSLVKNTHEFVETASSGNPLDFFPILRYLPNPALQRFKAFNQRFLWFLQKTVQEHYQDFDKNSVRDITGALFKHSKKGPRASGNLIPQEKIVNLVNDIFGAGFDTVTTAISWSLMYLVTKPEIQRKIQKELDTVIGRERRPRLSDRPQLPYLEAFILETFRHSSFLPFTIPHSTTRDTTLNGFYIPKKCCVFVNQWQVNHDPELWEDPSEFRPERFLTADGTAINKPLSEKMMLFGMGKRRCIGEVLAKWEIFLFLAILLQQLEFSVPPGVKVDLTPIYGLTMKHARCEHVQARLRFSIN

[2] = HepG2 cell cytotoxicity, dose response, cytotoxicity control for Shn3 inhibitor project, CellTiter-Glo, cherry-picked (AID 624134); assay type: functional, cell-based
[3] = biological target: E3 ubiquitin-protein ligase Mdm2 (Homo sapiens, UniProt Q00987); experiment: enhancers of MDM2-luciferase reporter signal, concentration-effect titration, project on inhibitors of MDM2 ubiquitin ligase, cellular assay, luminescent readout, 384-well plate format (AID 1394); assay type: functional;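 further: MDM2 E3 inhibitors raise luminescence so EC50 is for signal enhancement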
[4] = Luminescence Cell-Based Dose Retest to Confirm Inhibitors of Cancer Stem Cells. [Related pubchem assays (depositor defined):AID2717, AID2721]; assay type: functional; conditions: Homo sapiens
[5] = control 3'UTR Renilla luciferase suppression, dose response, counter-screen for Shn3 inhibitor project, cell-based, Clone20-Shn3RL, cherry-picked (AID 624133); assay type: functional
[6] = cytotoxicity in HMLE control line with eGFP shRNA, dose response, counter-screen for HMLE_sh_ECad selective toxicity project, cell-based, HMLE_sh_eGFP, luminescence (AID 463074); assay type: functional, Homo sapiens;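 further: HMLE human mammary epithelial cells expressing control shRNA against eGFP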
[7] = Late-stage probe development counterscreen for inhibitors of the Hepatitis C Virus non-structural protein 3 helicase (NS3): luminescence-based cell-based dose response assay to determine whether compounds that inhibit replication of HCV RNA replicon are cytotoxic. [Related pubchem assays (depositor defined):AID1800, AID1830, AID1845, AID1943, AID1945, AID2172, AID2173, AID2474, AID2476]; assay type: functional
[8] = biological target: T2, Apoptotic protease-activating factor 1 (Homo sapiens, UniProt O14727); assay type: functional
T2 sequence (O14727 whole entry): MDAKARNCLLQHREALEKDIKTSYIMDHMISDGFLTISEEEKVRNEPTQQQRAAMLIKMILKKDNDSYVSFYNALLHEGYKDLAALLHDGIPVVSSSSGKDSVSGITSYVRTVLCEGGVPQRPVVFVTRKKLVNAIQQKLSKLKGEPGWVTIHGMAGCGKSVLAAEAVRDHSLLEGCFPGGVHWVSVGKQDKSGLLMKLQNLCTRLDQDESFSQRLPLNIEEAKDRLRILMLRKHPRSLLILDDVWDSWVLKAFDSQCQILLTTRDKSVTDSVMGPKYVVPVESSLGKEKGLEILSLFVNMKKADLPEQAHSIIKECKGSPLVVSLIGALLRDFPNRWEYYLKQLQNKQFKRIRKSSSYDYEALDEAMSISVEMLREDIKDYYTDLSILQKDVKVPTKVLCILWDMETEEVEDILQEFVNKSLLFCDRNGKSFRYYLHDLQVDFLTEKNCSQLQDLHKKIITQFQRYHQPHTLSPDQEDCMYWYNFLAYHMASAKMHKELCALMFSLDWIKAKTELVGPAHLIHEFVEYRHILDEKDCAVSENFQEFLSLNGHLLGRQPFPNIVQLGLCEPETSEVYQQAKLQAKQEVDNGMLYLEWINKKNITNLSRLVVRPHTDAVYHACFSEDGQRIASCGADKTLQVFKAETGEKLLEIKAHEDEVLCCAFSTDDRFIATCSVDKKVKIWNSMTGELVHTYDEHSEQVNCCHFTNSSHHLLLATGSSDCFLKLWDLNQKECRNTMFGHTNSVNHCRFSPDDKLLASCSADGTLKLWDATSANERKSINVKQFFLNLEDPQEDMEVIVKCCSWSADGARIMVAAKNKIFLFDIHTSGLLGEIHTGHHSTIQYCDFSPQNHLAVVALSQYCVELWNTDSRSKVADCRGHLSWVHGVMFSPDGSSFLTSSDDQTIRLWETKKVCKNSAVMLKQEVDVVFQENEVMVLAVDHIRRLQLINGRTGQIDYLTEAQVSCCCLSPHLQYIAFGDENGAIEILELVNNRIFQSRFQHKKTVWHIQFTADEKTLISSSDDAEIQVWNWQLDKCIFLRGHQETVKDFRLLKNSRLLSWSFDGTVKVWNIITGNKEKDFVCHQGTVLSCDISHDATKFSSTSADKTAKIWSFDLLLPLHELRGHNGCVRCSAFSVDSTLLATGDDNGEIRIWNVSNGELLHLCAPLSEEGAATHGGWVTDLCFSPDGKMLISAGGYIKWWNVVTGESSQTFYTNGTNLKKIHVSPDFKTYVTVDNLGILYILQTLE

HEK293 [9] = experiment: cells; assay type: functional, cell-based; conditions: Homo sapiens
[10] = biological target: T3, Voltage-gated N-type calcium channel alpha-1B subunit/Amyloid beta A4 precursor protein-binding family A member 1 (Homo sapiens, UniProt Q00975+Q02410); assay type: protein assay
HEK293 [11] = experiment: cells; assay type: functional, cell-based; conditions: Homo sapiens; remark: listed apart in the source
HEK293 [12] = experiment: cells; assay type: functional, cell-based; conditions: Homo sapiens; remark: listed apart in the source
[13] = biological target: T3, Voltage-gated N-type calcium channel alpha-1B subunit/Amyloid beta A4 precursor protein-binding family A member 1; assay type: protein assay; remark: listed apart in the source
HEK293 [14] = experiment: NOD2 signaling inhibitors in MDP-stimulated cells, cell-based, uHTS, luminescence (AID 2001); assay type: functional; conditions: Homo sapiens
HEK293 [15] = experiment: NOD1 signaling inhibitors, primary screen, cell-based, luminescence, uHTS (AID 1578); assay type: functional; conditions: Homo sapiens
[16] = biological target: Nucleotide-binding oligomerization domain-containing protein 2 (Homo sapiens, UniProt Q9HC29); experiment: NOD2 signaling inhibitors, cell-based, luminescence, uHTS, HEK293 (AID 1566); assay type: functional

T3 sequence (Q00975 whole entry): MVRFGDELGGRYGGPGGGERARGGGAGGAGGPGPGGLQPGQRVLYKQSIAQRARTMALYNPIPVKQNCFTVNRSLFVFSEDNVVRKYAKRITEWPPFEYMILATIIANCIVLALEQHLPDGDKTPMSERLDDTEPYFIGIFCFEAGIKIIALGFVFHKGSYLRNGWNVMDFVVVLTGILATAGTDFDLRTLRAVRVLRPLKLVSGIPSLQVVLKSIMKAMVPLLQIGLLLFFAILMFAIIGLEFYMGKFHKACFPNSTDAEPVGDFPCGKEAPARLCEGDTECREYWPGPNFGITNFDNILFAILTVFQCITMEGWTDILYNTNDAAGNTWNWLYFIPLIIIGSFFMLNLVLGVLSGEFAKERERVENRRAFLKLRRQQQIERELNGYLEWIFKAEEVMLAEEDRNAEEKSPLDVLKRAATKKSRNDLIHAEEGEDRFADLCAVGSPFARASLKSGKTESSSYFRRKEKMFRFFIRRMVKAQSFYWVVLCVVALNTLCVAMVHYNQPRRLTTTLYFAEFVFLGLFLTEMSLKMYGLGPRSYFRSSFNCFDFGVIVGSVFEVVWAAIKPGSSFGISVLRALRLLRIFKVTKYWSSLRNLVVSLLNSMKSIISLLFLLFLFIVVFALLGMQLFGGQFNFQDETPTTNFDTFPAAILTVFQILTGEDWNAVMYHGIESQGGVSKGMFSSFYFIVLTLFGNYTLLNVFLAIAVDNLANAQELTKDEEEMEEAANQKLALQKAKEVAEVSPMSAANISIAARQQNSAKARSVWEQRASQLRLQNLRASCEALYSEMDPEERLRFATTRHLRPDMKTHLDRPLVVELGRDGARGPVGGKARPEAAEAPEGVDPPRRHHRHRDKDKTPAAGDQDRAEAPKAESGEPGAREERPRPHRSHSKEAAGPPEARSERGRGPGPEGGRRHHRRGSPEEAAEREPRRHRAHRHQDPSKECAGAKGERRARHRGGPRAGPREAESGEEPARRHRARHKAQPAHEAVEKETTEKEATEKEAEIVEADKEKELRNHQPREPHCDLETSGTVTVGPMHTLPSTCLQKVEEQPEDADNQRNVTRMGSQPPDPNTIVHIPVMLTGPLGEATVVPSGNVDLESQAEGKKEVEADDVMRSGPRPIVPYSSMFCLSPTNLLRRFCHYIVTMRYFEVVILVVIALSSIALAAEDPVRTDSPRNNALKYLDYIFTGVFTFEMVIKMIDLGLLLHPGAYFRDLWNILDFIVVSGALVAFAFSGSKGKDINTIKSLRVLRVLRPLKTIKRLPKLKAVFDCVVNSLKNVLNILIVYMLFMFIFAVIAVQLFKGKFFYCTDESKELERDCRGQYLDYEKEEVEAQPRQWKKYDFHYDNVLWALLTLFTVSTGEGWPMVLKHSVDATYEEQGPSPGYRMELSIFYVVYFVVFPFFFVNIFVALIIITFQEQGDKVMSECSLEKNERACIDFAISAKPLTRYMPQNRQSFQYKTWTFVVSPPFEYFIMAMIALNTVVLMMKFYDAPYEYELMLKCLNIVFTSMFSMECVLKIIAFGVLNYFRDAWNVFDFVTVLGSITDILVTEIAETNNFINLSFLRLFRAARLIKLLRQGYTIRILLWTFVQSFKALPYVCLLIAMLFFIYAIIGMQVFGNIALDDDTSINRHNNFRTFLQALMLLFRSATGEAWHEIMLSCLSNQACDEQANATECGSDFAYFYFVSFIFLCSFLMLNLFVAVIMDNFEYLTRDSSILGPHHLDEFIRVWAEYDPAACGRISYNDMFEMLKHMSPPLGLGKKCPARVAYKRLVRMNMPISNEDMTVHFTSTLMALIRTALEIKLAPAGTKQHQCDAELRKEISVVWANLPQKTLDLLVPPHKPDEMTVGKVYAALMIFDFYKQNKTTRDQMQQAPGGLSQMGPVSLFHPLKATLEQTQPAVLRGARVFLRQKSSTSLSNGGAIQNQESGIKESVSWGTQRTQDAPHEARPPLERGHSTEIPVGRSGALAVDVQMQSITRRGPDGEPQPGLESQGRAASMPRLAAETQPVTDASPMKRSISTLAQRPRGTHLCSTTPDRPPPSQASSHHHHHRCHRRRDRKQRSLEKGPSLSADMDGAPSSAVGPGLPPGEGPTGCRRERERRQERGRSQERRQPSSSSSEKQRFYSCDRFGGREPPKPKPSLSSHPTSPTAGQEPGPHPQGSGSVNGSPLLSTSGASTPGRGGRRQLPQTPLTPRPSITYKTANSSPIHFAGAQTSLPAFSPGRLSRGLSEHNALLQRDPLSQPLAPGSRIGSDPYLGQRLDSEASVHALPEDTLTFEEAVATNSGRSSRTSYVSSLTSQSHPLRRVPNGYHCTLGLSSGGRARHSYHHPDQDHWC
T3 sequence (Q02410 whole entry): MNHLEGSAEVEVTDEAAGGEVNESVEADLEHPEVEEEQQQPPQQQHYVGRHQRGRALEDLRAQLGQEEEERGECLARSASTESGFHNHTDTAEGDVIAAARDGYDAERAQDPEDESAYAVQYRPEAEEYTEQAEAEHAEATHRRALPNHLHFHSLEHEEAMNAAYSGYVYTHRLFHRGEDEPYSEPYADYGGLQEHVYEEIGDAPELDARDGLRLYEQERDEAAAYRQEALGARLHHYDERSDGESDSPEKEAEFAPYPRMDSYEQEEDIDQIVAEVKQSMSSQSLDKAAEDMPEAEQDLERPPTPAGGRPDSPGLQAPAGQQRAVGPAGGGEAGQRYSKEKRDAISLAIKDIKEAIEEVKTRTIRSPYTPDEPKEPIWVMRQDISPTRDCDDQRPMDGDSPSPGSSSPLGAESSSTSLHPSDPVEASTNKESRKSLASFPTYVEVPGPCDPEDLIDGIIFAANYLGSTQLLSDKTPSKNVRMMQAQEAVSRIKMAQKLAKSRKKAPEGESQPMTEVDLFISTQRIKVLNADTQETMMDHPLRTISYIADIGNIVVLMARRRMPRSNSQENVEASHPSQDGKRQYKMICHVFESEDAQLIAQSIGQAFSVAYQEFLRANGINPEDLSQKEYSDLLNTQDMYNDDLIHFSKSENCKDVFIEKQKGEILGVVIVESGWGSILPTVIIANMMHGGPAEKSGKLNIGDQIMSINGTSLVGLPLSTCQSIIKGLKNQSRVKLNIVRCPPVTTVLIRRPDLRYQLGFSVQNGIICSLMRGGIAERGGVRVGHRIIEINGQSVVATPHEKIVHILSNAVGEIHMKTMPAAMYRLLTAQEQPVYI
E3 ubiquitin-protein ligase Mdm2, sequence (Q00987 whole entry): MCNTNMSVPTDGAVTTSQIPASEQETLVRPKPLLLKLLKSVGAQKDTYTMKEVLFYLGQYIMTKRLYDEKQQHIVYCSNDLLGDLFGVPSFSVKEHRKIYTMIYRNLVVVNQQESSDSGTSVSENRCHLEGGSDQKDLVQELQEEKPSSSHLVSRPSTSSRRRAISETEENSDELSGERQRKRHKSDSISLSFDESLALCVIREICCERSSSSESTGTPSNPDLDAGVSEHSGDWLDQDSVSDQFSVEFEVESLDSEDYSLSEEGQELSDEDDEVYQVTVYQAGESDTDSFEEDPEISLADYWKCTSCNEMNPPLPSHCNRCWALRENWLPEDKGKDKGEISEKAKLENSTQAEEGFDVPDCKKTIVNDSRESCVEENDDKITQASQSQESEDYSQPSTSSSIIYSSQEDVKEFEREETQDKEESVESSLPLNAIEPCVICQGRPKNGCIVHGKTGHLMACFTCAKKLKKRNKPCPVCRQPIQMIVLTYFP
Cytochrome P450 2C19, sequence (P33261 whole entry): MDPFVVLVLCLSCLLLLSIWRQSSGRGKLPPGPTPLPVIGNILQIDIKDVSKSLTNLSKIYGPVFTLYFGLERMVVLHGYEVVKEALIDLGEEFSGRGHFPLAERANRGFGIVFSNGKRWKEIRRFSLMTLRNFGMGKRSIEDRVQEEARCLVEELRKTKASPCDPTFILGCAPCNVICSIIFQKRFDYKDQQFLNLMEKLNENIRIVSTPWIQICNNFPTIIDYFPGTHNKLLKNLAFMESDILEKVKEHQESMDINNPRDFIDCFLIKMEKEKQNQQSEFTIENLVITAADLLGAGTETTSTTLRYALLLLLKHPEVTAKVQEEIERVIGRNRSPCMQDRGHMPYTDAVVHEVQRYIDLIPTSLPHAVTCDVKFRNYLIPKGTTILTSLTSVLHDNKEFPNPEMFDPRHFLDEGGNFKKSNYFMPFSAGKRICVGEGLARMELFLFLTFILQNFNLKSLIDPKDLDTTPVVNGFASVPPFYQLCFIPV

For `Oc1nncc(-c2ccccc2)n1`, the AC50 (Cytochrome P450 2C19) was “inconclusive”, the AC50 [1] was 58.5 µM (active) and the AC50 (Cytochrome P450 1A2) was 14.1 µM (inconclusive).

In the case of `O=C1N/C(=C/c2ccc(N3CCOCC3)o2)C(=O)N1c1ccccc1`, the AC50 [2] is reported as > 70 µM (inactive), the EC50 [3] is reported as 6.73 µM (not active) and the AC50 [4] is reported as > 195 µM (inactive). The AC50 [5] was 5.03 µM (active) and the AC50 [6] was 45.7 µM (active).

In the case of `COc1ccc(C=NNC(=O)c2cc(O)c(O)c(O)c2)cc1COc1ccc(C(=O)OCC(C)C)cc1`, the CC50 [7] is reported as > 100 µM (inactive).

With `CCCCCCc1cc2cc(-c3nnc(-c4ccccc4OC)o3)c(=O)oc2cc1O` the IC50 [8] was 15.9 µM (active), the IC50 (HEK293 [9]) was > 20 µM (inactive) and the IC50 [10] was > 56.8 µM (not active). For the same compound, the IC50 (HEK293 [11]) was 9.41 µM (active), the IC50 (HEK293 [12]) was > 20 µM (inactive) and the IC50 [13] was > 50 µM (inactive). The IC50 (HEK293 [14]) was 8.48 µM (active), the EC50 (HEK293 [15]) was 6.54 µM (active) and the EC50 [16] was > 20 µM (inactive).
